ChEMBL document CHEMBL3045946, “Synthesis and biological activity studies of new hybrid molecules containing tryptamine moiety” (2012)
The source made the active and inactive calls. The rule behind the calls is not given here.

What was measured:
Candida albicans = assay: Antifungal activity against Candida albicans ATCC 60193 after 18 hr by agar well diffusion method; format: functional, organism-based
[1] = tested on: Mycolicibacterium smegmatis; assay: Antibacterial activity against Mycobacterium smegmatis ATCC 607 after 18 hr by agar well diffusion method; format: functional
Staphylococcus aureus [2] = assay: Antibacterial activity against Staphylococcus aureus ATCC 25923 after 18 hr by agar well diffusion method; format: functional
Saccharomyces cerevisiae = assay: Antifungal activity against Saccharomyces cerevisiae RSKK 251 after 18 hr by agar well diffusion method; format: functional, organism-based
Enterococcus faecalis [3] = assay: Antibacterial activity against Enterococcus faecalis ATCC 29212 after 18 hr by agar well diffusion method; format: functional
Candida tropicalis = assay: Antifungal activity against Candida tropicalis after 18 hr by agar well diffusion method; format: functional, organism-based
Bacillus cereus [4] = assay: Antibacterial activity against Bacillus cereus 702 Roma after 18 hr by agar well diffusion method; format: functional
Pseudomonas aeruginosa [5] = assay: Antibacterial activity against Pseudomonas aeruginosa ATCC 43288 after 18 hr by agar well diffusion method; format: functional
Pseudomonas aeruginosa [6] = assay: Antibacterial activity against Pseudomonas aeruginosa ATCC 43288 at 10 mg after 18 hr by agar well diffusion method; format: functional; details: ATCC 43288, 18 h, read-out: IZ
Bacillus cereus [7] = assay: Antibacterial activity against Bacillus cereus 702 Roma at 10 mg after 18 hr by agar well diffusion method; format: functional; details: read-out: IZ
Enterococcus faecalis [8] = assay: Antibacterial activity against Enterococcus faecalis ATCC 29212 at 10 mg after 18 hr by agar well diffusion method; format: functional; details: ATCC 29212, 18 h, read-out: IZ
Staphylococcus aureus [9] = assay: Antibacterial activity against Staphylococcus aureus ATCC 25923 at 10 mg after 18 hr by agar well diffusion method; format: functional; details: ATCC 25923, 18 h, read-out: IZ

Structure (SMILES) | Activity (Candida albicans) | inhibition zone (IZ) [1] | Activity (Staphylococcus aureus [2]) | Activity (Saccharomyces cerevisiae) | Activity (Enterococcus faecalis [3]) | Activity (Candida tropicalis) | inhibition zone (IZ) (Bacillus cereus [4]) | inhibition zone (IZ) (Pseudomonas aeruginosa [5]) | inhibition zone (IZ) (Staphylococcus aureus [2]) | Activity [1] | Activity (Bacillus cereus [4]) | Activity (Pseudomonas aeruginosa [5]) | inhibition zone (IZ) (Enterococcus faecalis [3]) | zone of inhibition at 10000 µg/disc (Pseudomonas aeruginosa [6]) | zone of inhibition at 10000 µg/disc (Bacillus cereus [7]) | zone of inhibition at 10000 µg/disc (Enterococcus faecalis [8]) | zone of inhibition at 10000 µg/disc (Staphylococcus aureus [9])
O=c1[nH]nc(Cn2nc(Cc3ccc(Cl)cc3)n(CCc3c[nH]c4ccccc34)c2=O)n1Cc1ccccc1 | inactive | 10 mm | inactive | inactive | inactive | inactive | 12 mm | 10 mm |  |  |  |  |  |  |  |  | 
O=C(Cn1nc(Cc2ccc(Cl)cc2)n(CCc2c[nH]c3ccccc23)c1=O)NNS(=O)(=O)c1ccc(Cl)cc1 | inactive | 14 mm |  | inactive |  | inactive | 12 mm | 12 mm | 11 mm |  |  |  |  |  |  |  | 
COc1ccc(/C=N/NC(=O)Cn2nc(Cc3ccc(C)cc3)n(CCc3c[nH]c4ccccc34)c2=O)cc1 | inactive |  | inactive | inactive | inactive | inactive |  |  |  | inactive | inactive | inactive |  |  |  |  | 
Cc1ccc(Cc2nn(CC(=O)NNS(=O)(=O)c3ccc(Cl)cc3)c(=O)n2CCc2c[nH]c3ccccc23)cc1 | inactive | 9 mm |  | inactive | inactive | inactive | 10 mm | 10 mm | 7 mm |  |  |  |  |  |  |  | 
O=C(Cn1nc(Cc2ccc(Cl)cc2)n(CCc2c[nH]c3ccccc23)c1=O)NNS(=O)(=O)c1ccc(Br)cc1 | inactive | 9 mm |  | inactive | inactive | inactive | 12 mm | 12 mm | 8 mm |  |  |  |  |  |  |  | 
O=c1n(Cc2nnc(S)o2)nc(Cc2ccc(Cl)cc2)n1CCc1c[nH]c2ccccc12 | inactive |  |  | inactive |  | inactive | 6 mm |  | 8 mm | inactive |  | inactive | 10 mm |  |  |  | 
CC1(C)S[C@@H]2[C@H](NC(=O)[C@H](N)c3ccccc3)C(=O)N2[C@H]1C(=O)O [AMPICILLIN] |  |  |  |  |  |  |  |  |  |  |  |  |  | 18 mm | 15 mm | 10 mm | 35 mm
Cc1ccc(Cc2nn(CC(=O)NNC(=S)Nc3ccccc3)c(=O)n2CCc2c[nH]c3ccccc23)cc1 | inactive |  | inactive | inactive | inactive | inactive |  |  |  | inactive | inactive | inactive |  |  |  |  | 
COc1ccc(/C=N/NC(=O)Cn2nc(Cc3ccc(Cl)cc3)n(CCc3c[nH]c4ccccc34)c2=O)cc1 | inactive |  | inactive | inactive | inactive | inactive |  |  |  | inactive | inactive | inactive |  |  |  |  | 
O=C(Cn1nc(Cc2ccc(Cl)cc2)n(CCc2c[nH]c3ccccc23)c1=O)N/N=C/c1ccc[nH]1 | inactive | 6 mm | inactive | inactive | inactive | inactive |  |  |  |  | inactive | inactive |  |  |  |  | 
Nn1c(S)nnc1Cn1nc(Cc2ccc(Cl)cc2)n(CCc2c[nH]c3ccccc23)c1=O | inactive | 7 mm | inactive | inactive | inactive | inactive | 7 mm |  |  |  |  | inactive |  |  |  |  | 
Cc1ccc(Cc2nn(CC(=O)NNS(=O)(=O)c3ccc(Br)cc3)c(=O)n2CCc2c[nH]c3ccccc23)cc1 | inactive | 7 mm | inactive | inactive | inactive | inactive | 8 mm | 10 mm |  |  |  |  |  |  |  |  | 
Cc1ccc(Cc2nn(Cc3nnc(S)o3)c(=O)n2CCc2c[nH]c3ccccc23)cc1 | inactive | 8 mm |  | inactive |  | inactive | 8 mm |  | 12 mm |  |  | inactive | 12 mm |  |  |  | 
Cc1ccc(Cc2nn(CC(=O)N/N=c3\scc(-c4ccc(Cl)cc4)n3-c3ccccc3)c(=O)n2CCc2c[nH]c3ccccc23)cc1 | inactive |  | inactive | inactive | inactive | inactive |  |  |  | inactive | inactive | inactive |  |  |  |  | 
Cc1ccc(Cc2nn(Cc3n[nH]c(=O)n3Cc3ccccc3)c(=O)n2CCc2c[nH]c3ccccc23)cc1 | inactive | 10 mm | inactive | inactive | inactive | inactive | 7 mm | 6 mm |  |  |  |  |  |  |  |  | 
O=C(Cn1nc(Cc2ccc(Cl)cc2)n(CCc2c[nH]c3ccccc23)c1=O)N/N=c1\occ(-c2ccc(Cl)cc2)n1Cc1ccccc1 | inactive |  |  | inactive | inactive | inactive | 6 mm |  | 5 mm | inactive |  | inactive |  |  |  |  | 
COc1ccc(/C=N/n2c(S)nnc2Cn2nc(Cc3ccc(C)cc3)n(CCc3c[nH]c4ccccc34)c2=O)cc1 | inactive | 6 mm |  | inactive | inactive | inactive | 12 mm | 12 mm | 11 mm |  |  |  |  |  |  |  | 
Cc1ccc(Cc2nn(Cc3nnc(S)n3N)c(=O)n2CCc2c[nH]c3ccccc23)cc1 | inactive | 6 mm | inactive | inactive | inactive | inactive | 7 mm |  |  |  |  | inactive |  |  |  |  | 
O=C(Cn1nc(Cc2ccc(Cl)cc2)n(CCc2c[nH]c3ccccc23)c1=O)N/N=C/Cc1ccccc1 | inactive |  | inactive | inactive | inactive | inactive |  |  |  | inactive | inactive | inactive |  |  |  |  | 
Cc1ccc(Cc2nn(CC(=O)N/N=C/c3ccccn3)c(=O)n2CCc2c[nH]c3ccccc23)cc1 | inactive |  | inactive | inactive | inactive | inactive |  |  |  | inactive | inactive | inactive |  |  |  |  | 
O=C(Cn1nc(Cc2ccc(Cl)cc2)n(CCc2c[nH]c3ccccc23)c1=O)NNC(=O)NCc1ccccc1 | inactive |  | inactive | inactive | inactive | inactive |  |  |  | inactive | inactive | inactive |  |  |  |  | 
Cc1ccc(Cc2nn(CC(=O)N/N=C/c3ccc[nH]3)c(=O)n2CCc2c[nH]c3ccccc23)cc1 | inactive |  | inactive | inactive | inactive | inactive |  |  |  | inactive | inactive | inactive |  |  |  |  | 
CN[C@@H]1[C@H](O[C@H]2[C@H](O[C@H]3[C@H](O)[C@@H](O)[C@H](N=C(N)N)[C@@H](O)[C@@H]3N=C(N)N)O[C@@H](C)[C@]2(O)C=O)O[C@@H](CO)[C@H](O)[C@H]1O [STREPTOMYCIN] |  | 35 mm |  |  |  |  |  |  |  |  |  |  |  |  |  |  | 
